In ChEMBL document CHEMBL1201862, “PubChem BioAssay data set” (2004):
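Protocol summary: plate cells (96-well), add compound at 5 concentrations, incubate 48 h, interpolate endpoints linearly. GI50 = concentration required for 50% inhibition of growth.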 The source made the active and inactive calls. Cut-off read from the data, not from the text of the source: active = GI50 up to about 1.1 µM and inactive = higher.

How the values were obtained:
Assay in all cases: NCI tumour cell line growth inhibition, 48 h
[1] = test system: U-251
[2] = test system: HCT-15
[3] = test system: IGROV-1
[4] = test system: MDA-MB-231
[5] = test system: NCI-H522
[6] = test system: COLO 205
[7] = test system: SNB-75
[8] = test system: M14
[9] = test system: T47D
[10] = test system: RPMI-8226
[11] = test system: MCF7
[12] = test system: Malme-3M
[13] = test system: DU-145
[14] = test system: NCI-H226
[15] = test system: SK-OV-3
[16] = test system: NCI-H23
[17] = test system: MOLT-4
[18] = test system: SF-268
[19] = test system: MDA-MB-435
[20] = test system: MDA-N
[21] = test system: CCRF-CEM
[22] = test system: A549
[23] = test system: A498
[24] = test system: HOP-92
[25] = test system: 786-0
[26] = test system: KM12
[27] = test system: OVCAR-3
[28] = test system: SF-295
[29] = test system: UACC-257
[30] = test system: HCC 2998
[31] = test system: Hs-578T
[32] = test system: UO-31
[33] = test system: SK-MEL-28
[34] = test system: HL-60
[35] = test system: NCI-H460
[36] = test system: ACHN
[37] = test system: HCT-116
[38] = test system: UACC-62
[39] = test system: SF-539
[40] = test system: K562
[41] = test system: BT-549
[42] = test system: PC-3
[43] = test system: RXF 393
[44] = test system: SNB-19
[45] = test system: TK-10
[46] = test system: OVCAR-5
[47] = test system: SK-MEL-5
[48] = test system: HOP-62
[49] = test system: CAKI-1
[50] = test system: OVCAR-4
[51] = test system: HT-29
[52] = test system: SK-MEL-2
[53] = test system: NCI/ADR-RES
[54] = test system: LOX IMVI
[55] = test system: OVCAR-8
[56] = test system: SN12C
[57] = test system: SW-620
[58] = test system: EKVX
[59] = test system: SR

SMILES: CC(C)=CCc1c2c(c3occ(-c4ccc(O)cc4)c(=O)c3c1O)CC(C(C)(C)O)O2 (configuration not stated) [SENEGALENSIN]
- GI50 [1]: 13.2 µM (inactive)
- GI50 [2]: 13.1 µM
- GI50 [3]: 2.8 µM (inactive)
- GI50 [4]: 14.4 µM (inactive)
- GI50 [5]: 15.8 µM (inactive)
- GI50 [6]: 14.6 µM (inactive)
- GI50 [7]: 17.8 µM (inactive)
- GI50 [8]: 14.5 µM (inactive)
- GI50 [9]: 10.3 µM (inactive)
- GI50 [10]: 9.77 µM (inactive)
- GI50 [11]: 12.8 µM (inactive)
- GI50 [12]: 21.3 µM (inactive)
- GI50 [13]: 15.5 µM (inactive)
- GI50 [14]: 20.3 µM (inactive)
- GI50 [15]: 18.8 µM (inactive)
- GI50 [16]: 18.7 µM (inactive)
- GI50 [17]: 11.7 µM (inactive)
- GI50 [18]: 26.5 µM (inactive)
- GI50 [19]: 16.6 µM (inactive)
- GI50 [20]: 21.4 µM (inactive)
- GI50 [21]: 17.5 µM (inactive)
- GI50 [22]: 13 µM (inactive)
- GI50 [23]: 16.1 µM (inactive)
- GI50 [24]: 18 µM (inactive)
- GI50 [25]: 16.8 µM (inactive)
- GI50 [26]: 16.8 µM (inactive)
- GI50 [27]: 14.4 µM (inactive)
- GI50 [28]: 12.1 µM (inactive)
- GI50 [29]: 15.7 µM (inactive)
- GI50 [30]: 11.2 µM (inactive)
- GI50 [31]: 36.1 µM (inactive)
- GI50 [32]: 10 µM (inactive)
- GI50 [33]: 24.3 µM (inactive)
- GI50 [34]: 12.4 µM (inactive)
- GI50 [35]: 12.5 µM (inactive)
- GI50 [36]: 14.8 µM (inactive)
- GI50 [37]: 16.7 µM (inactive)
- GI50 [38]: 16.4 µM (inactive)
- GI50 [39]: 20.1 µM (inactive)
- GI50 [40]: 17.2 µM (inactive)
- GI50 [41]: 17 µM (inactive)
- GI50 [42]: 13.8 µM (inactive)
- GI50 [43]: 13.6 µM (inactive)
- GI50 [44]: 16.4 µM (inactive)
- GI50 [45]: 16.5 µM (inactive)
- GI50 [46]: 19.1 µM (inactive)
- GI50 [47]: 15.2 µM (inactive)
- GI50 [48]: 18.7 µM (inactive)
- GI50 [49]: 18.8 µM (inactive)
- GI50 [50]: 12.9 µM (inactive)
- GI50 [51]: 12 µM (inactive)
- GI50 [52]: 14.6 µM (inactive)
- GI50 [53]: 15.7 µM (inactive)
- GI50 [54]: 14.9 µM (inactive)
- GI50 [55]: 17 µM (inactive)
- GI50 [56]: 19.6 µM (inactive)
- GI50 [57]: 21.7 µM (inactive)

SMILES: O=C1CCC(=O)N1CNc1ccc2c(c1)S(=O)(=O)c1ccccc1O2
- GI50 [1]: > 100 µM (inactive)
- GI50 [2]: > 100 µM
- GI50 [3]: > 100 µM (inactive)
- GI50 [4]: > 100 µM (inactive)
- GI50 [5]: > 100 µM (inactive)
- GI50 [6]: > 100 µM (inactive)
- GI50 [8]: > 100 µM (inactive)
- GI50 [9]: > 100 µM (inactive)
- GI50 [10]: 54.7 µM (inactive)
- GI50 [11]: > 100 µM (inactive)
- GI50 [12]: > 100 µM (inactive)
- GI50 [13]: > 100 µM (inactive)
- GI50 [14]: > 100 µM (inactive)
- GI50 [16]: > 100 µM (inactive)
- GI50 [17]: > 100 µM (inactive)
- GI50 [18]: > 100 µM (inactive)
- GI50 [19]: > 100 µM (inactive)
- GI50 [20]: > 100 µM (inactive)
- GI50 [21]: > 100 µM (inactive)
- GI50 [22]: > 100 µM (inactive)
- GI50 [23]: > 100 µM (inactive)
- GI50 [24]: > 100 µM (inactive)
- GI50 [25]: > 100 µM (inactive)
- GI50 [26]: > 100 µM (inactive)
- GI50 [27]: > 100 µM (inactive)
- GI50 [28]: > 100 µM (inactive)
- GI50 [29]: > 100 µM (inactive)
- GI50 [31]: > 100 µM (inactive)
- GI50 [32]: > 100 µM (inactive)
- GI50 [33]: > 100 µM (inactive)
- GI50 [34]: > 100 µM (inactive)
- GI50 [58]: 46 µM (inactive)
- GI50 [36]: > 100 µM (inactive)
- GI50 [37]: > 100 µM (inactive)
- GI50 [38]: > 100 µM (inactive)
- GI50 [39]: > 100 µM (inactive)
- GI50 [40]: > 100 µM (inactive)
- GI50 [41]: > 100 µM (inactive)
- GI50 [42]: > 100 µM (inactive)
- GI50 [43]: > 100 µM (inactive)
- GI50 [44]: > 100 µM (inactive)
- GI50 [45]: > 100 µM (inactive)
- GI50 [46]: > 100 µM (inactive)
- GI50 [47]: > 100 µM (inactive)
- GI50 [48]: > 100 µM (inactive)
- GI50 [49]: > 100 µM (inactive)
- GI50 [50]: > 100 µM (inactive)
- GI50 [51]: > 100 µM (inactive)
- GI50 [52]: > 100 µM (inactive)
- GI50 [53]: > 100 µM (inactive)
- GI50 [54]: > 100 µM (inactive)
- GI50 [55]: > 100 µM (inactive)
- GI50 [56]: > 100 µM (inactive)
- GI50 [57]: > 100 µM (inactive)

SMILES: CCCC(=O)Nc1cc2c3c(c1)CCCN3CCC2
- GI50 [1]: > 10 µM (inactive)
- GI50 [2]: > 10 µM
- GI50 [3]: > 10 µM (inactive)
- GI50 [4]: > 10 µM (inactive)
- GI50 [5]: > 10 µM (inactive)
- GI50 [6]: > 10 µM (inactive)
- GI50 [7]: > 10 µM (inactive)
- GI50 [8]: > 10 µM (inactive)
- GI50 [9]: 6.01 µM (inactive)
- GI50 [10]: > 10 µM (inactive)
- GI50 [11]: 6.08 µM (inactive)
- GI50 [12]: > 10 µM (inactive)
- GI50 [13]: > 10 µM (inactive)
- GI50 [59]: > 10 µM (inactive)
- GI50 [15]: 9.66 µM (inactive)
- GI50 [16]: 3.77 µM (inactive)
- GI50 [18]: > 10 µM (inactive)
- GI50 [19]: > 10 µM (inactive)
- GI50 [20]: > 10 µM (inactive)
- GI50 [21]: > 10 µM (inactive)
- GI50 [22]: > 10 µM (inactive)
- GI50 [24]: > 10 µM (inactive)
- GI50 [25]: > 10 µM (inactive)
- GI50 [26]: > 10 µM (inactive)
- GI50 [27]: > 10 µM (inactive)
- GI50 [28]: > 10 µM (inactive)
- GI50 [29]: > 10 µM (inactive)
- GI50 [30]: > 10 µM (inactive)
- GI50 [31]: > 10 µM (inactive)
- GI50 [33]: > 10 µM (inactive)
- GI50 [34]: > 10 µM (inactive)
- GI50 [36]: > 10 µM (inactive)
- GI50 [37]: > 10 µM (inactive)
- GI50 [38]: > 10 µM (inactive)
- GI50 [39]: > 10 µM (inactive)
- GI50 [40]: > 10 µM (inactive)
- GI50 [41]: > 10 µM (inactive)
- GI50 [42]: > 10 µM (inactive)
- GI50 [44]: > 10 µM (inactive)
- GI50 [45]: > 10 µM (inactive)
- GI50 [46]: > 10 µM (inactive)
- GI50 [47]: > 10 µM (inactive)
- GI50 [48]: > 10 µM (inactive)
- GI50 [49]: > 10 µM (inactive)
- GI50 [50]: > 10 µM (inactive)
- GI50 [51]: > 10 µM (inactive)
- GI50 [53]: > 10 µM (inactive)
- GI50 [54]: > 10 µM (inactive)
- GI50 [55]: > 10 µM (inactive)
- GI50 [56]: > 10 µM (inactive)
- GI50 [57]: > 10 µM (inactive)
